Source: US12590062B2, “PD-1/PD-L1 inhibitors” (Gilead Sciences, Inc., priority 2017, dated 2026)

Experiments:
[1] = target: PD-1/PD-L1 (Homo sapiens, UniProt Q9NZQ7); experiment: PD-1/PD-L1 biochemical protein-protein interaction assay (ALPHA); type: binding; details: 0.3 nM His tagged PD-L1, 2.5 nM biotinylated Fc-PD-1, 60 minutes at 25° C., read-out: IC50 PD-L1-PD-1 Alpha IC50-mono PD-L1-fcP-D1
How it was run: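 Final concentrations 0.3 nM His-tagged PD-L1 and 2.5 nM biotinylated Fc-PD-1 (extracellular domains) were reacted with compound for 60 min at 25° C in pH 7.4 Hepes/NaCl/EDTA/Tween/BSA buffer. Binding was then detected by ALPHA beads, and IC50 values were taken from four-parameter curve fitting.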

[2] = target: T1, PD-L1 (Homo sapiens, UniProt Q9NZQ7); experiment: PD-L1/PD-L1 dimerization biochemical protein-protein interaction assay (ALPHA); type: binding; details: compound-induced PD-L1 dimerization, head prints '1 nM' (0.5 nM His-tagged PD-L1 and 0.5 nM FLAG-tagged PD-L1), read-out: AC50 PDL1 Dimer Alpha 1 nM
T1 construct: determine if they can specifically dimerize the extracellular domains of PD-L1
How it was run: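 ALPHA proximity assay of compound-induced dimerization of 0.5 nM His-tagged and 0.5 nM FLAG-tagged PD-L1 extracellular domains in Hepes pH 7.4 buffer, 2 h at 25 °C. Anti-His acceptor then anti-FLAG donor beads, 60 min each; AC50 from four-parameter fit.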

[3] = target: T2, PD-1/PD-L1 interaction (Homo sapiens, UniProt Q9NZQ7); experiment: PD-1/PD-L1 NFAT reporter co-culture assay; type: cell-based; details: Jurkat PD-1 NFAT-luciferase cells co-cultured with aAPC-PD-L1 CHO cells, 6 hrs at 37° C.; read-out: EC50 NFAT Luciferase
T2 construct: expressed in transfected cells; host or cells: CHO cells (aAPC-PD-L1) co-cultured with Jurkat cells overexpressing PD-1 and an NFAT-luciferase reporter
How it was run: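 Jurkat cells overexpressing PD-1 with NFAT-driven luciferase were mixed with compound in RPMI 1640/2% FBS and seeded onto overnight-plated CHO aAPC-PD-L1 cells expressing surface anti-CD3 and PD-L1. Co-culture ran 6 h at 37 °C; luminescence read with ONE-Glo; EC50 from four-parameter fit.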

Sequence of PD-1/PD-L1 (Q9NZQ7 19-238 limits assumed): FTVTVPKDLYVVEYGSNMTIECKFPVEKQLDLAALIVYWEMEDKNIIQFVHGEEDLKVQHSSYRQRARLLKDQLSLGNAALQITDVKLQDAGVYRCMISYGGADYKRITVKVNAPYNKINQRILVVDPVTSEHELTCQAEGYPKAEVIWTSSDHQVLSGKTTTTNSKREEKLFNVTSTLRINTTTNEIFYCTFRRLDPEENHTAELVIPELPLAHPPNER
T1 sequence (Q9NZQ7 19-238 limits assumed): as above
T1 sequence (Q9NZQ7 19-238 limits assumed): as above
T2 sequence (Q9NZQ7 19-290): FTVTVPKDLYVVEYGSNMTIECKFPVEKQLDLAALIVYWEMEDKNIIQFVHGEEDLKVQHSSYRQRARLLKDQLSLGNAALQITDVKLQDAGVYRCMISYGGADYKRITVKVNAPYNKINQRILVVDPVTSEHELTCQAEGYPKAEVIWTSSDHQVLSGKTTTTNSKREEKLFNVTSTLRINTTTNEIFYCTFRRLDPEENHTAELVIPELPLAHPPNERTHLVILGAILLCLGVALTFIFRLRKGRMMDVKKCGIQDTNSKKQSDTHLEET

## Cc1c(COc2cc(OCc3cncc(C#N)c3)c(CNC[C@@H](O)CC(=O)O)cc2Cl)cccc1-c1cccc(NC(=O)c2ccc(CNC[C@@H](O)CC(=O)O)cn2)c1C [Example 346, (S)-4-(((6-((3′-((4-((((S)-3-carboxy-2-hydroxypropyl)amino)methyl)-2-chloro-5-((5-cyanopyridin-3-yl)methoxy)phenoxy)methyl)-2,2′-dimethyl-[1,1′-biphenyl]-3-yl)carbamoyl)pyridin-3-yl)methyl)amino)-3-hydroxybutanoic acid]
[1]
  IC50: 0.074 nM
[2]
  AC50: 181 nM
[3]
  EC50: 214 nM

## Cc1c(COc2cc(OCc3cncc(C#N)c3)c(CNC[C@@H](O)CC(=O)O)cc2Cl)cccc1-c1cccc(-c2ccc(CNC[C@@H](O)CC(=O)O)cc2)c1C [Example 384, (S)-4-((4-((4″-((((S)-3-carboxy-2-hydroxypropyl)amino)methyl)-2,2′-dimethyl-[1,1′:3′,1″-terphenyl]-3-yl)methoxy)-5-chloro-2-((5-cyanopyridin-3-yl)methoxy)benzyl)amino)-3-hydroxybutanoic acid]
[1]
  IC50: 0.112 nM
[2]
  AC50: 154 nM
[3]
  EC50: 154 nM

## Cc1c(COc2cc(OCc3cncc(C#N)c3)c(CNC[C@@H](O)CC(=O)O)cc2Cl)cccc1-c1cccc(-c2ccc(CNC[C@@H]3CCC(=O)N3)cc2)c1C [Example 574]
[1]
  IC50: 0.071 nM
[2]
  AC50: 56 nM
[3]
  EC50: 72 nM

## COc1nc(O[C@H]2CCc3c(-c4cccc(-c5ccc(CNC[C@@H]6CCC(=O)N6)c(OCC#N)c5)c4Cl)cccc32)c(Cl)cc1CNC[C@@H]1CCC(=O)N1 [Example 655]
[1]
  IC50: 0.404 nM
[2]
  AC50: 26 nM
[3]
  EC50: 28 nM

## O=C1CC[C@@H](CNCc2ccc(-c3cccc(-c4cccc(-c5ccc(CNC[C@@H]6CCC(=O)N6)c(N6CCOCC6)c5)c4Cl)c3Cl)cc2N2CCOCC2)N1 [Example 626]
[1]
  IC50: 3.08 nM
[2]
  AC50: ≥ 10000 nM
[3]
  EC50: ≥ 50000 nM

## Cc1c(COc2cc(OCc3cncc(C#N)c3)c(CN3CC[C@@H](O)C3)cc2Cl)cccc1-c1cccc(-c2ccc(CN3CC(CC(=O)O)C3)cc2)c1C [Example 582]
[1]
  IC50: 1.3 nM
[2]
  AC50: 347 nM
[3]
  EC50: 147 nM

## COc1nc(-c2cccc(-c3cccc(-c4ccc5[nH]cc(CN(C)C)c5c4)c3Cl)c2Cl)ccc1CNC[C@@H]1CCC(=O)N1 [Example 608]
[1]
  IC50: 1.72 nM
[2]
  AC50: 214 nM
[3]
  EC50: ≥ 50000 nM

## Cc1c(COc2cc(OCc3cncc(C#N)c3)c(CNC[C@@H](O)CC(=O)O)cc2Cl)cccc1-c1cccc(-c2nc3cc(CNC[C@@H](O)CC(=O)O)ccc3o2)c1C [Example 593]
[1]
  IC50: 0.064 nM
[2]
  AC50: 124 nM
[3]
  EC50: 113 nM

## COc1nc(-c2cccc(-c3cccc(N4Cc5cc(CN6CC7(CCC(=O)N7)C6)ccc5C4=O)c3Cl)c2Cl)ccc1CN1CC2(CCC(=O)N2)C1 [Example 631]
[1]
  IC50: 0.13 nM
[2]
  AC50: 441 nM
[3]
  EC50: ≥ 50000 nM

## COc1nc(O[C@H]2CCc3c(-c4cccc(-c5cnc6c(CNC[C@@H]7CCC(=O)N7)cn(C)c6n5)c4Cl)cccc32)c(Cl)cc1CN1CC(C(=O)O)C1 [Example 529]
[1]
  IC50: 0.064 nM
[2]
  AC50: 56.2 nM
[3]
  EC50: 165 nM

## COc1nc(O[C@H]2CCc3c(-c4cccc(-c5ccc(C6=NCCN6)c(OC)n5)c4Cl)cccc32)c(Br)cc1CNC[C@@H](O)CC(=O)O [Example 787]
[1]
  IC50: 0.066 nM
[2]
  AC50: 35.4 nM
[3]
  EC50: 58 nM

## Cn1cc(CN2CC3(CCC(=O)N3)C2)c2ccc(-c3cccc(-c4cccc(-c5ccc6c(CN7CC8(CCC(=O)N8)C7)cn(C)c6n5)c4Cl)c3Cl)nc21 [Example 476]
[1]
  IC50: 1.11 nM
[2]
  AC50: 149 nM
[3]
  EC50: 196 nM

## Cc1c(COc2cc(OCc3cncc(C#N)c3)c(CNCCO)cc2Cl)cccc1-c1cccc(-c2ccc3c(c2)CCC3N2CC[C@H](O)C2)c1C (stereo partly drawn) [Example 373, 5-((4-chloro-2-(((2-hydroxyethyl)amino)methyl)-5-((3′-(1-((S)-3-hydroxypyrrolidin-1-yl)-2,3-dihydro-1H-inden-5-yl)-2,2′-dimethyl-[1,1′-biphenyl]-3-yl)methoxy)phenoxy)methyl)nicotinonitrile]
[1]
  IC50: 2.59 nM
[2]
  AC50: 168 nM
[3]
  EC50: 339 nM

## N#Cc1cncc(COc2cc(O[C@H]3CCc4c(-c5cccc(-c6nc7ccc(CNC[C@@H]8CCC(=O)N8)cn7n6)c5Cl)cccc43)c(Cl)cc2CNC[C@@H]2CCC(=O)N2)c1 [Example 802]
[1]
  IC50: 0.084 nM
[2]
  AC50: 55.5 nM
[3]
  EC50: 177 nM

## Cc1c(COc2cc(OCc3cncc(C#N)c3)c(CN[C@@H]3CCC[C@@H]3O)cc2Cl)cccc1-c1cccc(-c2ccc(CN3CC(CC(=O)O)C3)cc2)c1C [Example 368, 2-(1-((3″-((2-chloro-5-((5-cyanopyridin-3-yl)methoxy)-4-((((1R,2S)-2-hydroxycyclopentyl)amino)methyl)phenoxy)methyl)-2′,2″-dimethyl-[1,1′:3′,1″-terphenyl]-4-yl)methyl)azetidin-3-yl)acetic acid]
[1]
  IC50: 1.88 nM
[2]
  AC50: 274 nM
[3]
  EC50: 118 nM

## CC(C)(NCc1cc(Br)c(OCc2cccc(-c3cccc(-c4ccc5c(c4)C[C@@H](N)C5)c3Cl)c2Cl)nc1OCc1cncc(S(C)(=O)=O)c1)C(=O)O [Example 545]
[1]
  IC50: 0.089 nM
[2]
  AC50: 24.4 nM
[3]
  EC50: 145 nM

## Cc1c(COc2cc(OCc3cncc(C#N)c3)c(CNC[C@@H](O)CC(=O)O)cc2Cl)cccc1-c1cccc(-c2ncc(COCCNC[C@@H](O)CC(=O)O)s2)c1C [Example 350, (S)-4-((4-((3′-(5-((2-(((S)-3-carboxy-2-hydroxypropyl)amino)ethoxy)methyl)thiazol-2-yl)-2,2′-dimethyl-[1,1′-biphenyl]-3-yl)methoxy)-5-chloro-2-((5-cyanopyridin-3-yl)methoxy)benzyl)amino)-3-hydroxybutanoic acid]
[1]
  IC50: 0.105 nM
[2]
  AC50: 252 nM
[3]
  EC50: 527 nM

## COc1nc(O[C@H]2CCc3c(-c4cccc(-c5ccc(CNC[C@@H]6CCC(=O)N6)c(OCC#N)c5)c4Cl)cccc32)c(Cl)cc1CN[C@@H]1CCC[C@@H]1O [Example 650]
[1]
  IC50: 0.288 nM
[2]
  AC50: 8.2 nM
[3]
  EC50: 39 nM

## COc1cc(O[C@H]2CCc3c(-c4cccc(-c5ccc(CN6CC7(CCC(=O)N7)C6)c(OC)n5)c4Cl)cccc32)c(Cl)cc1CNC[C@@H]1CCC(=O)N1 [Example 796]
[1]
  IC50: 0.762 nM
[2]
  AC50: 228 nM
[3]
  EC50: 151 nM

## Cc1c(COc2cc(OCc3cncc(C#N)c3)c(CNC[C@@H](O)CC(=O)O)cc2Cl)cccc1-c1cccc(-c2ccc3c(c2)CC(N2CC(C)(O)C2)C3)c1C (stereo partly drawn) [Example 442]
[1]
  IC50: 0.697 nM
[2]
  AC50: 328 nM
[3]
  EC50: 930 nM

## COc1nc(O[C@H]2CCc3c(-c4cccc(-c5ccc(C6=NCCN6)c(OC)n5)c4Cl)cccc32)c(Br)cc1CN1CC2(C1)CN(C(C)=O)C2 [Example 775]
[1]
  IC50: 0.276 nM
[2]
  AC50: 68 nM
[3]
  EC50: 84 nM

## COc1nc(O[C@H]2CCc3c(-c4cccc(-c5ccc(C6=NCCN6)c(OC)n5)c4Cl)cccc32)c(Br)cc1CN1CCCC[C@H]1C(=O)O [Example 785]
[1]
  IC50: 0.064 nM
[2]
  AC50: 16.1 nM
[3]
  EC50: 66 nM
